Results as given in PubChem BioAssay (NCI).
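Values below derive from 48-hour exposures of cells grown in 96-well plates, with endpoints linearly interpolated between the two concentrations bracketing the appropriate inhibition level. TGI: total growth inhibition.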

Experiments:
Experiment in all cases: NCI-60 cell line screen, 48 h
SF-295 CNS = test system: SF-295 CNS
NCI-H522 lung = test system: NCI-H522 lung
786-0 renal = test system: 786-0 renal
A498 renal = test system: A498 renal
OVCAR-8 ovarian = test system: OVCAR-8 ovarian
M14 melanoma = test system: M14 melanoma
UACC-62 melanoma = test system: UACC-62 melanoma
COLO 205 colon = test system: COLO 205 colon
MOLT-4 leukemia = test system: MOLT-4 leukemia
SF-539 CNS = test system: SF-539 CNS
ACHN renal = test system: ACHN renal
HT29 colon = test system: HT29 colon
SK-MEL-5 melanoma = test system: SK-MEL-5 melanoma
HOP-62 NSCLC = test system: HOP-62 NSCLC
NCI-H460 lung = test system: NCI-H460 lung
U251 CNS = test system: U251 CNS
SNB-75 CNS = test system: SNB-75 CNS
OVCAR-4 ovarian = test system: OVCAR-4 ovarian
OVCAR-5 ovarian = test system: OVCAR-5 ovarian
HOP-92 NSCLC = test system: HOP-92 NSCLC

| SMILES | TGI (SF-295 CNS) | TGI (NCI-H522 lung) | TGI (786-0 renal) | TGI (A498 renal) | TGI (OVCAR-8 ovarian) | TGI (M14 melanoma) | TGI (UACC-62 melanoma) | TGI (COLO 205 colon) | TGI (MOLT-4 leukemia) | TGI (SF-539 CNS) | TGI (ACHN renal) | TGI (HT29 colon) | TGI (SK-MEL-5 melanoma) | TGI (HOP-62 NSCLC) | TGI (NCI-H460 lung) | TGI (U251 CNS) | TGI (SNB-75 CNS) | TGI (OVCAR-4 ovarian) | TGI (OVCAR-5 ovarian) | TGI (HOP-92 NSCLC) |
| --- | --- | --- | --- | --- | --- | --- | --- | --- | --- | --- | --- | --- | --- | --- | --- | --- | --- | --- | --- | --- |
| Cc1nn(C(=O)Cc2ccccc2)c2c1C(c1ccc([N+](=O)[O-])cc1)SC(N)=N2 (stereo unspecified) | > 100 µM | > 100 µM | > 100 µM | > 100 µM | > 100 µM | > 100 µM | > 100 µM | > 100 µM | > 100 µM | > 100 µM | > 100 µM | > 100 µM | > 100 µM | > 100 µM | > 100 µM |  |  |  |  |  |
| CS(=O)(=O)NNS(=O)(=O)c1ccc(F)cc1 | > 100 µM | > 100 µM | > 100 µM | > 100 µM | > 100 µM | > 100 µM | > 100 µM | > 100 µM | > 100 µM | > 100 µM | > 100 µM | > 100 µM | > 100 µM | > 100 µM | > 100 µM | > 100 µM | > 100 µM | > 100 µM |  |  |
| C1=CCC[C@@H]2CN3CCCC/C=C\CCCC[C@H]4C[C@H](CN(CCCCCCCC1)C4)[C@H]2CC3 | 16.4 µM | 17.7 µM | 15.9 µM | 30.3 µM | 17.5 µM | 18.7 µM | 16.9 µM | 16 µM | 21.2 µM | 14.9 µM | 17 µM | 20.8 µM | 16.3 µM | 15.6 µM | 18.7 µM | 15.4 µM | 16.5 µM | 26.8 µM | 23.7 µM |  |
| CC(C)=NOC(=O)OC[C@H]1O[C@@H](n2cnc3c(N)ncnc32)C(O)C1O (stereo partly specified) | > 100 µM | > 100 µM | > 100 µM | > 100 µM | > 100 µM | > 100 µM |  | > 100 µM | > 100 µM | > 100 µM | > 100 µM | > 100 µM | > 100 µM | > 100 µM | > 100 µM | > 100 µM | > 100 µM | > 100 µM | > 100 µM |  |
| CCOC(=O)[C@@]1(C(C)=O)CC(C)=C(C)C[S@]1=O | > 100 µM | > 100 µM | > 100 µM | > 100 µM | > 100 µM | > 100 µM | > 100 µM | > 100 µM | > 100 µM |  | > 100 µM |  |  | > 100 µM | > 100 µM | > 100 µM | > 100 µM | > 100 µM | > 100 µM | > 100 µM |
| COC(=O)/C(=N\NC(N)=O)C(C#N)c1ccccc1 (stereo unspecified) | > 100 µM | > 100 µM | > 100 µM | > 100 µM | > 100 µM | > 100 µM | > 100 µM | > 100 µM | > 100 µM | > 100 µM | > 100 µM | > 100 µM |  | > 100 µM | > 100 µM | > 100 µM | > 100 µM | > 100 µM | > 100 µM |  |
| CN/N=C(\C)C(CN1CCCCC1)C(C1=C(O)c2ccccc2OC1)c1ccccc1 (stereo unspecified) | > 100 µM | > 100 µM | > 100 µM |  | > 100 µM | > 100 µM | > 100 µM | > 100 µM | > 100 µM | > 100 µM | > 100 µM | > 100 µM | > 100 µM | > 100 µM | > 100 µM | > 100 µM | > 100 µM | > 100 µM | > 100 µM |  |
| CNC(=O)N1CN(c2ccccc2)C2(CCN(Cc3ccccc3)CC2)C1=O | > 100 µM | > 100 µM | > 100 µM |  | > 100 µM | > 100 µM | > 100 µM | > 100 µM | 46.8 µM | > 100 µM | > 100 µM | > 100 µM | > 100 µM | > 100 µM |  | > 100 µM | > 100 µM |  | 64.1 µM |  |
| O=S1(=O)c2cc(S(=O)(=O)n3ccnc3)ccc2NC2=NCCCN21 | > 100 µM | 30.9 µM | 99.6 µM | 62.3 µM | 70 µM | > 100 µM | > 100 µM | 35.2 µM | > 100 µM | 40.1 µM | > 100 µM | 46.3 µM | 49.6 µM | 63.6 µM |  | 41.5 µM | 88.1 µM | > 100 µM | > 100 µM | > 100 µM |
| O=C1CCCCCCCCCCC1CN1CCOCC1 (stereo unspecified) | > 100 µM | > 100 µM | > 100 µM |  | > 100 µM | > 100 µM | > 100 µM | > 100 µM | > 100 µM | > 100 µM | > 100 µM |  | > 100 µM | > 100 µM |  | > 100 µM |  | > 100 µM | > 100 µM | > 100 µM |
| Nc1ccn(CCOC(c2ccccc2)P(=O)(O)O)c(=O)n1 (stereo unspecified) | > 100 µM | > 100 µM | > 100 µM | > 100 µM | > 100 µM |  | > 100 µM | > 100 µM | > 100 µM | > 100 µM | > 100 µM | > 100 µM | > 100 µM |  | > 100 µM | > 100 µM | > 100 µM |  | > 100 µM |  |
| C=CCCCN1CCCCC1=S | > 100 µM | > 100 µM | > 100 µM |  | > 100 µM | > 100 µM | > 100 µM | > 100 µM | > 100 µM | > 100 µM | > 100 µM | > 100 µM | > 100 µM | > 100 µM | > 100 µM | > 100 µM | > 100 µM | > 100 µM | > 100 µM | > 100 µM |
| N#Cc1ccc(OCCSCCCCCCCCCCSCCOc2ccc(C#N)cc2)cc1 | > 100 µM | > 100 µM | > 100 µM | > 100 µM | > 100 µM | > 100 µM | > 100 µM | > 100 µM | > 100 µM | > 100 µM | > 100 µM |  | > 100 µM | > 100 µM | > 100 µM | > 100 µM | > 100 µM |  | > 100 µM |  |
